Laboratory results taken from ChEMBL document CHEMBL5104161, “Novel analgesic/anti-inflammatory agents: 1,5-Diarylpyrrole nitrooxyethyl sulfides and related compounds as Cyclooxygenase-2 inhibitors containing a nitric oxide donor moiety endowed with vasorelaxant properties” (Eur J Med Chem, 2022).

Legend:
[1] = Intrinsic clearance in mouse liver microsomes at 1 uM preincubated for 10 mins and measured up to 60 mins by LC-MS/MS analysis; format: ADME, Microsome; details: read-out: CLH
[2] = Half-life in mouse liver microsomes at 1 uM preincubated for 10 mins and measured up to 60 mins by LC-MS/MS analysis; format: ADME, Microsome
[3] = Half-life in human liver microsomes at 1 uM preincubated for 10 mins and measured up to 60 mins by LC-MS/MS analysis; format: ADME, Microsome
[4] = Intrinsic clearance in human liver microsomes at 1 uM preincubated for 10 mins and measured up to 60 mins by LC-MS/MS analysis; format: ADME, Microsome; details: read-out: CLH
[5] = biological target: T1, Prostaglandin G/H synthase 1 (Mus musculus, UniProt P22437); experiment: Inhibition of COX1 in mouse J774 cells using arachidonic acid as substrate preincubated for 15 mins followed substrate addition and assessed as inhibition of PGE2 production after 30 mins by enzyme immuno-assay (EIA); format: cell-based
T1 sequence (P22437 whole entry): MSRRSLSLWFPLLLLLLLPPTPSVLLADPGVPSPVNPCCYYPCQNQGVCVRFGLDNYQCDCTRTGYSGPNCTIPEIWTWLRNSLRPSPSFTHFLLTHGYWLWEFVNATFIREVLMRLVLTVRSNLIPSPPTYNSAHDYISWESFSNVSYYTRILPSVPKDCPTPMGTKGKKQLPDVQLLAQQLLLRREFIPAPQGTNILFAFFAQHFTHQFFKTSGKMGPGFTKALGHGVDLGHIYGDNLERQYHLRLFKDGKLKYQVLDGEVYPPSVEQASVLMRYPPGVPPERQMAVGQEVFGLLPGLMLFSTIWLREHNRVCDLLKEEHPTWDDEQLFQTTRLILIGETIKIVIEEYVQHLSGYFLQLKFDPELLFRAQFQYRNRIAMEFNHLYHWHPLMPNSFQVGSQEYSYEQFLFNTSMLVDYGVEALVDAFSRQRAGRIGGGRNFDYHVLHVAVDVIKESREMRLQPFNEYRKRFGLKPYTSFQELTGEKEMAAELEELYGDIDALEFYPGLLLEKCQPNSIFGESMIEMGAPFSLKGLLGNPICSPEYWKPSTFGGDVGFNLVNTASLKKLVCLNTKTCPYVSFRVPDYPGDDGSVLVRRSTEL

Mus musculus [6] = experiment: Analgesic activity against acetic acid-induced male CD1 albino mouse model assessed as number of writhes at 30 mg/kg, po measured after 30 mins by abdominal constriction test; format: functional; details: 0.5 h
Rattus norvegicus [7] = experiment: Anti-hyperalgesic activity in carrageenan-induced hyperalgesia male Sprague-Dawley rat model assessed as paw edema volume at 20 mg/kg, po measured 30 mins after compound administration by plethysmometer analysis; format: functional; details: 0.5 h
Mus musculus [8] = experiment: Analgesic activity against acetic acid-induced male CD1 albino mouse model assessed as number of writhes at 10 mg/kg, po measured after 30 mins by abdominal constriction test; format: functional; details: 0.5 h
Mus musculus [9] = experiment: Analgesic activity against acetic acid-induced male CD1 albino mouse model assessed as number of writhes at 20 mg/kg, po measured after 30 mins by abdominal constriction test; format: functional; details: 0.5 h
J774 = experiment: Ratio IC50 for inhibition of COX1 in mouse J774 cells over inhibition of COX2 in mouse J774 cells; format: cell-based
Rattus norvegicus [10] = experiment: Anti-hyperalgesic activity in carrageenan-induced hyperalgesia male Sprague-Dawley rat model assessed as paw withdrawal threshold at 20 mg/kg, po measured 45 mins after compound administration by paw pressure test; format: functional; details: 0.75 h
Rattus norvegicus [11] = experiment: Anti-hyperalgesic activity in carrageenan-induced hyperalgesia male Sprague-Dawley rat model assessed as paw withdrawal threshold at 20 mg/kg, po measured 30 mins after compound administration by paw pressure test; format: functional; details: 0.5 h
Rattus norvegicus [12] = experiment: Anti-hyperalgesic activity in carrageenan-induced hyperalgesia male Sprague-Dawley rat model assessed as paw withdrawal threshold at 20 mg/kg, po measured 15 mins after compound administration by paw pressure test; format: functional; details: 0.25 h
Rattus norvegicus [13] = experiment: Anti-hyperalgesic activity in carrageenan-induced hyperalgesia male Sprague-Dawley rat model assessed as paw withdrawal threshold at 20 mg/kg, po measured 60 mins after compound administration by paw pressure test; format: functional; details: 1 h
[14] = biological target: T2, Prostaglandin G/H synthase 2 (Mus musculus, UniProt Q05769); experiment: Inhibition of COX2 in LPS-stimulated mouse J774 cells assessed as inhibition of PGE2 production and measured after 24 hrs by enzyme immuno-assay (EIA); format: cell-based
T2 sequence (Q05769 whole entry): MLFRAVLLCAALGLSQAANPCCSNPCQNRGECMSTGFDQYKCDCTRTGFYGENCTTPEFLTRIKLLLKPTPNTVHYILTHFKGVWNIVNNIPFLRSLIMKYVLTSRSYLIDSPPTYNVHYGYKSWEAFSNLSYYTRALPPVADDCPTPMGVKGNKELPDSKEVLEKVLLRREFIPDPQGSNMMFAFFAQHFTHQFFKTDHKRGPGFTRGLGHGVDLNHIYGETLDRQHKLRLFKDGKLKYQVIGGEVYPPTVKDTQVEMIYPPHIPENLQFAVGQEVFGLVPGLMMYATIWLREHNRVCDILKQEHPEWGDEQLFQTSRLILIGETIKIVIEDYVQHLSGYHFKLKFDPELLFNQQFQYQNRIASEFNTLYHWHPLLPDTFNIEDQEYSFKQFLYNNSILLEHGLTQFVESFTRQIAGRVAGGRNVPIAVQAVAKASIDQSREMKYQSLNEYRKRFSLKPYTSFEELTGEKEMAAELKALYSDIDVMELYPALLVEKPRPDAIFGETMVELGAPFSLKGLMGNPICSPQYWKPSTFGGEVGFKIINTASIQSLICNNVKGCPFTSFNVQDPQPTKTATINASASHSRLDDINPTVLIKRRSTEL

Aorta = experiment: Vasorelaxant activity in Sprague-Dawley rat aortic rings assessed as reduction in L-phenylephrine-induced contractions at 0.01 to 100 uM relative to control; format: functional; details: dose 0.01-100 µM

| Compound | microsomal CLint at 1 µM [1] [µL/min/mg] | half-life at 1 µM [2] [min] | half-life at 1 µM [3] [min] | microsomal CLint at 1 µM [4] [µL/min/mg] | IC50 [5] [nM] | Activity (Mus musculus [6]) | Activity (Rattus norvegicus [7]) [mL] | Activity (Mus musculus [8]) | Activity (Mus musculus [9]) | Ratio IC50 (J774) | Activity (Rattus norvegicus [10]) [g] | Activity (Rattus norvegicus [11]) [g] | Activity (Rattus norvegicus [12]) [g] | Activity (Rattus norvegicus [13]) [g] | IC50 [14] [nM] | Efficacy (Aorta) [%] |
| --- | --- | --- | --- | --- | --- | --- | --- | --- | --- | --- | --- | --- | --- | --- | --- | --- |
| CCOc1ccc2ccc(=O)oc2c1 | 297 | 4.7 | 12.6 | 113 |  |  |  |  |  |  |  |  |  |  |  |  |
| Cc1c(CCSCCO)cc(-c2ccc(S(C)(=O)=O)cc2)n1-c1ccc(F)c(F)c1 |  |  |  |  | > 10000 | 17.4 | 2.09 | 23.8 | 19.6 | > 588 | 45.3 | 46.6 | 37.8 | 39.6 | 17 |  |
| Cc1c(CCOCCO[N+](=O)[O-])cc(-c2ccc(S(C)(=O)=O)cc2)n1-c1ccccc1 |  |  |  |  |  |  |  |  |  | > 588 |  |  |  |  |  |  |
| Cc1c(CC[S+]([O-])CCO)cc(-c2ccc(S(C)(=O)=O)cc2)n1-c1ccccc1 (centres undefined) |  |  |  |  | > 10000 |  |  |  |  | > 31.2 |  |  |  |  | 320 |  |
| Cc1c(CC[S+]([O-])CCO)cc(-c2ccc(S(C)(=O)=O)cc2)n1-c1ccc(F)cc1 (centres undefined) | 9.7 | 142 | 470 | 3.2 | > 10000 |  |  |  |  | > 11 |  |  |  |  | 916 |  |
| Cc1c(CCSCCO[N+](=O)[O-])cc(-c2ccc(S(C)(=O)=O)cc2)n1-c1ccccc1 |  |  |  |  | > 10000 |  |  |  |  | > 345 |  |  |  |  | 29 | 59 |
| Cc1c(CCOCCO[N+](=O)[O-])cc(-c2ccc(S(C)(=O)=O)cc2)n1-c1ccc(F)cc1 |  |  |  |  |  |  |  |  |  | > 714 |  |  |  |  |  | 59 |
| Cc1c(CC[S+]([O-])CCO[N+](=O)[O-])cc(-c2ccc(S(C)(=O)=O)cc2)n1-c1ccc(F)cc1 (centres undefined) | 40.3 | 35.1 | 34.7 | 39.9 | > 10000 | 18 | 2.25 | 29.2 | 21.8 | > 2000 | 46.1 | 47.2 | 42.3 | 36.3 | 5 |  |
| Cc1c(CC[S+]([O-])CCO)cc(-c2ccc(S(C)(=O)=O)cc2)n1-c1ccc(F)c(F)c1 (centres undefined) |  |  |  |  | > 10000 |  |  |  |  | > 71.4 |  |  |  |  | 140 |  |
| Cc1c(CCOCCO[N+](=O)[O-])cc(-c2ccc(S(C)(=O)=O)cc2)n1-c1ccc(F)c(F)c1 |  |  |  |  |  |  |  |  |  | > 10.9 |  |  |  |  |  |  |
| Cc1c(CCSCCO)cc(-c2ccc(S(C)(=O)=O)cc2)n1-c1ccc(F)cc1 | 73.2 | 19.2 | 36.2 | 39.2 | > 10000 | 21.5 | 2.22 | 26.5 | 23.1 | > 1250 | 48.7 | 48.2 | 41.5 | 38.2 | 8 |  |
| Cc1c(CCOCCO)cc(-c2ccc(S(C)(=O)=O)cc2)n1-c1ccc(F)c(F)c1 |  |  |  |  |  |  |  |  |  | > 23.8 |  |  |  |  |  |  |
| Cc1c(CCSCCO[N+](=O)[O-])cc(-c2ccc(S(C)(=O)=O)cc2)n1-c1ccc(F)c(F)c1 |  |  |  |  | > 10000 | 20.7 | 2.31 | 22.5 | 19 | > 625 | 45.7 | 46.1 | 40.6 | 37.1 | 16 | 59 |
| Cc1c(CC[S+]([O-])CCO[N+](=O)[O-])cc(-c2ccc(S(C)(=O)=O)cc2)n1-c1ccccc1 (centres undefined) |  |  |  |  | > 10000 |  |  |  |  | > 135 |  |  |  |  | 74 | 59 |
| Cc1c(CCSCCO)cc(-c2ccc(S(C)(=O)=O)cc2)n1-c1ccccc1 |  |  |  |  | > 10000 |  |  |  |  | > 400 |  |  |  |  | 25 |  |
| Cc1c(CCSCCO[N+](=O)[O-])cc(-c2ccc(S(C)(=O)=O)cc2)n1-c1ccc(F)cc1 | 61.2 | 22.8 | 10.5 | 132 | > 10000 | 20.6 | 2.18 | 24.2 | 20.5 | > 1110 | 44.7 | 45.9 | 39.9 | 37.5 | 9 | 59 |
| Cc1c(CC[S+]([O-])CCO[N+](=O)[O-])cc(-c2ccc(S(C)(=O)=O)cc2)n1-c1ccc(F)c(F)c1 (centres undefined) |  |  |  |  | > 10000 | 21.3 | 2.2 | 25.9 | 20.1 | > 3330 | 44.2 | 48.2 | 39.8 | 38.3 | 3 | 59 |
